Measurements from patent US12324790B1, “Preparation method and application of micelle preparation containing thymol and derivative thereof” (Nanjing Mucosa Tech Co., Ltd., priority 2024, dated 2025).

What was measured:
[1] = States of preparations observed with the naked eyes (solubilization); type: physicochemical; conditions: water, without TPGS, apparent concentration 2 mg/ml
Method: A surfactant TPGS was selected for solubilization. Preparation method: 40 mg of THY was weighed and placed in a beaker, added with a certain amount of water and TPGS and magnetically stirred at room temperature for 24 h. In micelle preparations 2-8, mass ratios of THY to TPGS were 2:1, 1:1, 1:2.5, 1:5, 1:7, 1:10, 1:15, and 1:20, respectively.
40 mg of THY-Tos was weighed and placed in a beaker, and added with a certain amount of water and TPGS. For Preparations 2 to 5, the mass ratios of THY-Tos to TPGS were 1:1, 1:7, 1:10, and 1:15, respectively. The above micelle preparations were magnetically stirred for 24 h to obtain the final products.

oral ulcer rats = test: Pharmacodynamic study in NaOH-induced oral ulcer rats; parameters: species or system SD rats; conditions: rat, in vivo
Excerpt: After 3 days of adaptive feeding, each rat was anesthetized and fixed on an operating table, the labial mucosa of the SD rat was dried with sterile cotton balls, and further sterile cotton balls were used for moisture isolation. A 3 mm×3 mm NaOH crystal was placed on the labial mucosa, and then removed after being maintained for 30 s. A treated area was wiped with sterile cotton balls containing normal saline to remove residual NaOH. […]
An area method was used to macroscopically evaluate the oral ulcer area, a maximum transverse diameter and longitudinal diameter of the ulcer were measured by vernier calipers, which were marked as d1 and d2, respectively, and a ulcer area was S=π×d1×d2×¼ (π=3.14). […]
The analysis was performed by t-test, and normally distributed quantitative data were expressed as mean±standard deviation (X, ±S), one-way ANOVA and LSD methods were used for pairwise comparison, and the Wilcoxon rank-sum test was used when the ANOVA conditions were not met. […]

- solubility (in words) [1]: poor solubility
Compound: Cc1ccc(C(C)C)c(OC(=O)CCC(=O)Oc2c(C)c(C)c3c(c2C)CC[C@@](C)(CCC[C@H](C)CCC[C@H](C)CCCC(C)C)O3)c1 [THY-Tos]
- efficacy on an animal-based oral ulcer model compared with THY in combination with vitamin E (oral ulcer rats): not significantly different
